Results as given in publication PMC4824433, “A Carbapenem-Resistant Pseudomonas aeruginosa Isolate Harboring Two Copies of blaIMP-34 Encoding a Metallo-β-Lactamase” (PLoS ONE, 2016).
In brackets after ≈: the same amount, converted by molar mass.

Legend:
P. aeruginosa NCGM1984 = test system: T1, P. aeruginosa NCGM1984; assay: microbe, parasite or virus in culture; design: CLSI microdilution susceptibility test, minimum inhibitory concentration of bacterial growth; details: clinical isolate carrying two copies of blaIMP-34; for MIC: Pseudomonas aeruginosa, NCGM1984, read-out: MIC (μg/ml) / P. aeruginosa NCGM1984
T1 construct: NCGM1984 (clinical isolate, ST235, two chromosomal copies of blaIMP-34)

E. coli DH5α (pHSG398) = test system: T2, E. coli DH5α (pHSG398); assay: microbe, parasite or virus in culture; design: CLSI microdilution susceptibility test, minimum inhibitory concentration of bacterial growth; details: Escherichia coli; empty vector control; read-out: MIC (μg/ml) / E. coli DH5α (pHSG398)
T2 construct: DH5α (pHSG398) empty vector control
Protocol: (§1) The ORFs of blaIMP-1 and blaIMP-34 were amplified by PCR using the primers EcoRI-IMP-1/34-F(5′-gggGAATTCatgagcaagttatctgtattc-3′; uppercase letters indicate an EcoRI digestion site) and PstI-IMP-1/34-R (5′-aaaCTGCAGttagttgcttggttttgatgg-3′; uppercase letters indicate a PstI digestion site). […] The plasmids were used to transform DH5α, and transformants were selected on LB agar containing 30 μg/mL of chloramphenicol, and their susceptibilities to various β-lactams were assayed. P. aeruginosa NCGM2.S1 harboring blaIMP-1 was used as a reference strain [12].

[1] = test system: T3, E. coli DH5α (pHSG398/IMP-1); assay: microbe, parasite or virus in culture; design: CLSI microdilution susceptibility test, minimum inhibitory concentration of bacterial growth; details: Escherichia coli, read-out: MIC (μg/ml) / E. coli DH5α (pHSG398/IMP-1)
T3 construct: DH5α (pHSG398/IMP-1) transformant expressing blaIMP-1 from pHSG398
Protocol: as §1

[2] = test system: CC(C)(O/N=C(\C(=O)N[C@@H]1C(=O)N2C(C(=O)[O-])=C(C[n+]3ccccc3)CS[C@H]12)c1csc(N)n1)C(=O)O; assay: purified protein; details: 50 mM Tris-HCl pH 7.4, 5 μM Zn(NH3)2, 37°C
Source text: (§2) UV-visible spectrophotometry, initial rates, Lineweaver-Burk plots on IMP-1

[3] = test system: CC1(C)S[C@@H]2[C@H](NC(=O)Cc3ccccc3)C(=O)N2[C@H]1C(=O)O; assay: purified protein; details: 50 mM Tris-HCl pH 7.4, 5 μM Zn(NH3)2, 37°C
Source text: as §2

[4] = test system: CC1(C)S[C@@H]2[C@H](NC(=O)[C@H](N)c3ccccc3)C(=O)N2[C@H]1C(=O)O; assay: purified protein; details: 50 mM Tris-HCl pH 7.4, 5 μM Zn(NH3)2, 37°C
Source text: as §2

[5] = test system: CC1=C(C(=O)O)N2C(=O)[C@@H](NC(=O)[C@H](N)C3=CCC=CC3)[C@H]2SC1; assay: purified protein; details: 50 mM Tris-HCl pH 7.4, 5 μM Zn(NH3)2, 37°C
Source text: as §2

[6] = test system: CO/N=C(\C(=O)N[C@@H]1C(=O)N2C(C(=O)O)=C(COC(C)=O)CS[C@H]12)c1csc(N)n1; assay: purified protein; details: 50 mM Tris-HCl pH 7.4, 5 μM Zn(NH3)2, 37°C
Source text: as §2

[7] = test system: CO/N=C(\C(=O)N[C@@H]1C(=O)N2C(C(=O)[O-])=C(C[N+]3(C)CCCC3)CS[C@H]12)c1csc(N)n1; assay: purified protein; details: 50 mM Tris-HCl pH 7.4, 5 μM Zn(NH3)2, 37°C
Source text: as §2

[8] = test system: CO[C@@]1(NC(=O)Cc2cccs2)C(=O)N2C(C(=O)O)=C(COC(N)=O)CS[C@@H]21; assay: purified protein; details: 50 mM Tris-HCl pH 7.4, 5 μM Zn(NH3)2, 37°C
Source text: as §2

[9] = test system: C[C@@H](O)[C@H]1C(=O)N2C(C(=O)O)=C(SCCN=CN)C[C@H]12; assay: purified protein; details: 50 mM Tris-HCl pH 7.4, 5 μM Zn(NH3)2, 37°C
Source text: as §2

[10] = test system: C[C@@H](O)[C@H]1C(=O)N2C(C(=O)O)=C(S[C@@H]3CN[C@H](C(=O)N(C)C)C3)[C@H](C)[C@H]12; assay: purified protein; details: 50 mM Tris-HCl pH 7.4, 5 μM Zn(NH3)2, 37°C
Source text: as §2

[11] = test system: C[C@@H](O)[C@H]1C(=O)N2C(C(=O)O)=C(S[C@@H]3CN[C@H](CNS(N)(=O)=O)C3)[C@H](C)[C@H]12; assay: purified protein; details: 50 mM Tris-HCl pH 7.4, 5 μM Zn(NH3)2, 37°C
Source text: as §2

CO/N=C(\C(=O)N[C@@H]1C(=O)N2C(C(=O)O)=C(CSc3nc(=O)c(O)nn3C)CS[C@H]12)c1csc(N)n1 [Ceftriaxone]
MIC (P. aeruginosa NCGM1984): > 1020 µg/mL | MIC (E. coli DH5α (pHSG398)): ≤ 0.25 µg/mL | MIC [1]: 64 µg/mL (≈ 115 µM)

C[C@@H](O)[C@H]1C(=O)N2C(C(=O)O)=C(S[C@@H]3CN[C@H](C(=O)N(C)C)C3)[C@H](C)[C@H]12 [Meropenem]
MIC (P. aeruginosa NCGM1984): > 1020 µg/mL | MIC (E. coli DH5α (pHSG398)): ≤ 0.25 µg/mL | MIC [1]: 0.5 µg/mL (≈ 1.3 µM)

CO/N=C(\C(=O)N[C@@H]1C(=O)N2C(C(=O)O)=C(COC(N)=O)CS[C@H]12)c1ccco1 [Cefuroxime]
MIC (P. aeruginosa NCGM1984): > 1020 µg/mL | MIC (E. coli DH5α (pHSG398)): 4 µg/mL (≈ 9.43 µM) | MIC [1]: 256 µg/mL (≈ 603 µM)

C[C@H]1[C@H](NC(=O)/C(=N\OC(C)(C)C(=O)O)c2csc(N)n2)C(=O)N1S(=O)(=O)O [Aztreonam]
MIC (P. aeruginosa NCGM1984): 64 µg/mL (≈ 147 µM) | MIC (E. coli DH5α (pHSG398)): ≤ 0.25 µg/mL | MIC [1]: ≤ 0.25 µg/mL

CC(C)(O/N=C(\C(=O)N[C@@H]1C(=O)N2C(C(=O)[O-])=C(C[n+]3ccccc3)CS[C@H]12)c1csc(N)n1)C(=O)O [Ceftazidime]
MIC (μg/ml) / P. aeruginosa NCGM1984 (P. aeruginosa NCGM1984): > 1,024 ug/mL | MIC (E. coli DH5α (pHSG398)): ≤ 0.25 µg/mL | MIC [1]: 512 µg/mL (≈ 937 µM)

CO/N=C(\C(=O)N[C@@H]1C(=O)N2C(C(=O)[O-])=C(C[N+]3(C)CCCC3)CS[C@H]12)c1csc(N)n1 [Cefepime]
MIC (P. aeruginosa NCGM1984): > 1020 µg/mL

CO/N=C(\C(=O)N[C@@H]1C(=O)N2C(C(=O)O)=C(COC(C)=O)CS[C@H]12)c1csc(N)n1 [Cefotaxime]
MIC (P. aeruginosa NCGM1984): > 1020 µg/mL | MIC (E. coli DH5α (pHSG398)): ≤ 0.25 µg/mL | MIC [1]: 16 µg/mL (≈ 35.1 µM)

CC1(C)S[C@@H]2[C@H](NC(=O)Cc3ccccc3)C(=O)N2[C@H]1C(=O)O [Penicillin G]
MIC (P. aeruginosa NCGM1984): > 1020 µg/mL | MIC (E. coli DH5α (pHSG398)): 32 µg/mL (≈ 95.7 µM) | MIC [1]: 128 µg/mL (≈ 383 µM)

C[C@@H](O)[C@H]1C(=O)N2C(C(=O)O)=C(S[C@@H]3CN[C@H](CNS(N)(=O)=O)C3)[C@H](C)[C@H]12 [Doripenem]
MIC (P. aeruginosa NCGM1984): > 1020 µg/mL | MIC (E. coli DH5α (pHSG398)): ≤ 0.25 µg/mL | MIC [1]: 0.25 µg/mL (≈ 0.595 µM)

IMP-1 (Serratia marcescens)
Km [2]: 26 ± 1 µM | kcat [2]: 0.68 ± 0.01 s⁻¹ | kcat/Km [2]: 26000 M⁻¹ s⁻¹ | Km [3]: 685 ± 99 µM | kcat [3]: 94 ± 12 s⁻¹ | kcat/Km [3]: 140000 M⁻¹ s⁻¹ | Km [4]: 341 ± 17 µM | kcat [4]: 16 ± 1 s⁻¹ | kcat/Km [4]: 48000 M⁻¹ s⁻¹ | Km [5]: 73 ± 2 µM | kcat [5]: 21 ± 1 s⁻¹ | kcat/Km [5]: 290000 M⁻¹ s⁻¹ | Km [6]: 13 ± 2 µM | kcat [6]: 2.8 ± 0.1 s⁻¹ | kcat/Km [6]: 220000 M⁻¹ s⁻¹ | Km [7]: 22 ± 8 µM | kcat [7]: 1.4 ± 0.2 s⁻¹ | kcat/Km [7]: 68000 M⁻¹ s⁻¹ | Km [8]: 34 ± 5 µM | kcat [8]: 2.7 ± 0.1 s⁻¹ | kcat/Km [8]: 80000 M⁻¹ s⁻¹ | Km [9]: 58 ± 14 µM | kcat [9]: 6.9 ± 0.5 s⁻¹ | kcat/Km [9]: 120000 M⁻¹ s⁻¹ | Km [10]: 37 ± 12 µM | kcat [10]: 2.3 ± 0.2 s⁻¹ | kcat/Km [10]: 66000 M⁻¹ s⁻¹ | Km [11]: 39 ± 8 µM | kcat [11]: 4.8 ± 0.1 s⁻¹ | kcat/Km [11]: 130000 M⁻¹ s⁻¹

CO/N=C(\C(=O)N[C@@H]1C(=O)N2C(C(=O)[O-])=C(C[n+]3ccn4ncccc43)CS[C@H]12)c1nsc(N)n1 [Cefozopran]
MIC (P. aeruginosa NCGM1984): > 1020 µg/mL | MIC (E. coli DH5α (pHSG398)): ≤ 0.25 µg/mL | MIC [1]: 4 µg/mL (≈ 7.76 µM)

CC1(C)S[C@@H]2[C@H](NC(=O)[C@H](N)c3ccccc3)C(=O)N2[C@H]1C(=O)O [Ampicillin]
MIC (P. aeruginosa NCGM1984): > 1020 µg/mL | MIC (E. coli DH5α (pHSG398)): 2 µg/mL (≈ 5.72 µM) | MIC [1]: 32 µg/mL (≈ 91.6 µM)

CC1=C(C(=O)O)N2C(=O)[C@@H](NC(=O)[C@H](N)C3=CCC=CC3)[C@H]2SC1 [Cephradine]
MIC (P. aeruginosa NCGM1984): > 1020 µg/mL | MIC (E. coli DH5α (pHSG398)): 16 µg/mL (≈ 45.8 µM) | MIC [1]: 256 µg/mL (≈ 733 µM)

CO[C@@]1(NC(=O)Cc2cccs2)C(=O)N2C(C(=O)O)=C(COC(N)=O)CS[C@@H]21 [Cefoxitin]
MIC (P. aeruginosa NCGM1984): > 1020 µg/mL | MIC (E. coli DH5α (pHSG398)): 2 µg/mL (≈ 4.68 µM) | MIC [1]: 512 µg/mL (≈ 1200 µM)

CO[C@@]1(NC(=O)C(C(=O)O)c2ccc(O)cc2)C(=O)N2C(C(=O)O)=C(CSc3nnnn3C)CO[C@@H]21 (stereo partly shown) [Moxalactam]
MIC (P. aeruginosa NCGM1984): > 1020 µg/mL | MIC (E. coli DH5α (pHSG398)): ≤ 0.25 µg/mL | MIC [1]: 64 µg/mL (≈ 123 µM)

C[C@@H](O)[C@H]1C(=O)N2C(C(=O)O)=C(SCCN=CN)C[C@H]12 [Imipenem]
MIC (P. aeruginosa NCGM1984): 512 µg/mL (≈ 1710 µM) | MIC (E. coli DH5α (pHSG398)): ≤ 0.25 µg/mL | MIC [1]: 0.5 µg/mL (≈ 1.67 µM)

CO/N=C(\C(=O)N[C@@H]1C(=O)N2C(C(=O)[O-])=C(C[n+]3cccc4c3CCC4)CS[C@H]12)c1csc(N)n1 [Cefpirome]
MIC (P. aeruginosa NCGM1984): 512 µg/mL (≈ 995 µM) | MIC (E. coli DH5α (pHSG398)): ≤ 0.25 µg/mL | MIC [1]: 0.25 µg/mL (≈ 0.486 µM)
